This note sets out measurements from patent US11337984B2, “Methods for treating, diagnosing and prognosing a haematological malignancy” (Institut de Recerca Contra La Leucèmia Josep Carreras, priority 2014, dated 2022).

Entries after “also recorded” stand apart in the source; their conditions may differ.

The test system of series [1] is primary AML patient samples. Description: Myeloid differentiation markers on primary patient AML samples. The series is classed as cell-based, human. The following applies: 0.1, 1 and 10 μM, 72 h. How it is done:
FIG. 6. […] The surface expression of CD11b, CD14 and CD15 was detected by flow cytometry. […] 9 primary AML samples were analyzed in triplicates. Each symbol represents a specific AML patient.
FIG. 7. […] The surface expression of CD11b, CD14 and CD15 was detected by flow cytometry. […] 9 primary AML samples were analyzed in triplicates. Each symbol represents a specific AML patient.

Another series deals with primary AML samples. Briefly: Clonogenic capacity (CFU-B) of primary AML samples in methylcellulose. Particulars: 10 μM for 18 h, then 14 days in methylcellulose. The series is classed as cell-based, human. How it is done: FIG. 10. The clonogenic capacity of primary AML samples is reduced upon 5HTR antagonist treatment. […] Cells were then cultivated in Methylcellulose supplemented with hematopoietic cytokines for 14 days. The number of CFU-B obtained was measured by microscopy based on morphological criteria. 7 primary AML blood samples were analyzed. Each symbol represents a specific patient sample. Lines represent the median. *p<0.05. CFU-B: Blast colony-forming units.
Taking into account that 5HTR antagonists reduced the cell viability of the most primitive AML population, the clonogenic capacity upon treatment was investigated. Primary patient AML samples were cultured in the presence of Apomorphine and Methiothepin for 18 h and plated in a semi-solid methylcellulose media for 14 days in the presence of instructive cytokines at a concentration of fifty thousand cells per mL. Colonies were counted by light microscopy based on morphology and cellularity.

For series [2], the system named is healthy haematopoietic stem/progenitor cells. Briefly: Clonogenic capacity of lineage-depleted umbilical cord blood cells. The series is classed as cell-based, human. The following applies: 10 μM for 18 h, then 14 days in methylcellulose. How it is done:
FIG. 11. […] Cells were then cultivated in Methylcellulose supplemented with haematopoietic cytokines for 14 days. The number of colonies obtained was measured by microscopy based on morphological criteria. A. Total number of colonies is represented. CFU: colony-forming units. B. Frequency of each colony subtype is shown (CFU-Mix, Mix lineaged colony; CFU-GM, granulo-monocyte colony; CFU-G, granulocyte colony; CFU-M, monocyte colony; BFU-E erythrocyte blast colony). 4 primary umbilical cord blood samples were analyzed.
Next, lineage-depleted umbilical cord blood cells were treated with Apomorphine or Methiothepin as done above for AML cells. 14 days after plating, colonies were counted by light microscopy based on morphology and cellularity.

Series [3] relates to primary CFU-Bs from AML patients. Briefly: Secondary CFU replating of pretreated primary AML CFU-Bs. The series is classed as cell-based, human. The following applies: primary CFUs pretreated with 10 μM, replated 14 days without drug.
Another series relates to MonoMac-1 cells. Description: In vivo xenotransplantation mouse model (NSG mice injected with MonoMac-1 cells). Particulars: IP every other day, day 7 to 14; apomorphine 5 mg/kg, methiothepin 0.1 mg/kg; versus vehicle. How it is done: FIG. 15. Treatment with 5HTR1 antagonists reduce AML burden in an in vivo xenotransplantation mouse model. 6-8 week-old NOD.Cg-Prkdc^scid Il2rg^tm1Wj1/SzJ (NSG) mice were myeloablated with busulfan (30 mg/kg IP) at day 0. At day 1, 10^6 MonoMac-1 cells were injected IV. From day 7 to day 14, mice were treated IP every other day with apomorphine (5 mg/kg) or methiothepin (0.1 mg/kg), while control mice were treated with saline vehicle (0.9% NaCl). At day 15, mice were sacrificed and their bones (iliac crests, femurs and tibias) were harvested and analyzed for the presence of human cells. Bone marrow samples were measured by flow cytometry. Frequency of human CD45 positive cells (upper panel) and total human CD45 positive cells (lower panel) in BM refer to control. Bars represent the mean value. Error bars represent SEM. **p<0.01; ***p<0.001.
Leukemia cells mainly reside in the bone marrow niche where the stroma cell compartment provides paracrine signaling that strongly mediates their survival and proliferation and protects them from apoptosis ( ). Accordingly, conditioned immunodeficient NOD.Cg-Prkdc^scid Il2rg^tm1Wj1/SzJ (NSG) mice (Sanchez et al Leukemia. 2009 November; 23(11):2109-17) were transplanted with human AML cells and left for 7 days for the leukemia to be established. […]

Series [4] relates to primary AML patient cells. Briefly: Engraftment of ex vivo treated primary AML cells in NSG mice. Set-up: species or system mouse. Particulars: ex vivo 10 μM for 18 h; bone marrow 8 weeks after transplantation; versus vehicle. How it is done: FIG. 16. 5HTR antagonist treatment reduces the leukemia regeneration capacity of primary AML cells, whilst sparing healthy hematopoietic stem/progenitor cells. 1-10×10^6 primary AML patient cells or 10-14×10^4 lineage-depleted CB cells were ex vivo treated (10 μM apomorphine, 10 μM methiothepin or vehicle control) for 18 h in IMDM supplemented with 5% heat-inactivated fetal bovine serum and hematopoietic cytokines. Cells were injected IV in previously busulfan (30 mg/kg)-conditioned NSG mice and left 8 weeks untreated. Mice were sacrificed and their bones (iliac crests, femurs and tibias) were harvested and analyzed for the presence of human leukemia (upper panel) or healthy blood (lower panel) cells by flow cytometry. Four AML patient samples and three umbilical cord blood (UCB) samples were tested. *p<0.05; **p<0.01.
Leukemia-initiating cells (LIC) or LSCs are responsible for the engraftment of AML cells in xenograft mouse models and are thought to initiate and maintain the disease in humans. Primary AML patient samples were treated ex vivo with 5HTR antagonists for 18 h and transplanted into conditioned immunodeficient NSG mice. Eight weeks after transplantation, murine bone marrow was analyzed for the presence of human AML cells.

The subject of series [5] is healthy hematopoietic stem cells. Briefly: Secondary transplants of engrafted healthy cells in NSG mice. The series is classed as in vivo, mouse. How it is done:
(§1) FIG. 17. Treatments with 5HTR antagonists reduce the leukemia regeneration capacity of primary AML samples in secondary recipient, without affecting normal hematopoiesis. Upper panel. 3-10×10^5 engrafted bone marrow cells from primary transplanted mice were injected intravenously into secondary recipients (conditioned NSG mice) and left untreated for 8 weeks. Bone marrow cells were analyzed as in FIG. 16. Frequency of human CD45 positive cells referred to control is represented. Lower panel. 50×10^3 engrafted human cells were screened for CFUs. The normalized number of CFUs obtained is represented. *p<0.05; ***p<0.005; ****p<0.0001.
(§2) In order to assay the in vivo self-renewal capacity remaining in the engrafted samples, secondary transplants were performed. Less than 35% of AML cells were detected in mice injected with apomorphine- or methiothepin-treated cells (FIG. 17).

Another series deals with AML cells. Briefly: CFU assay of engrafted AML samples. The series is classed as cell-based. The following applies: engrafted human cells from primary transplanted mice. How it is done:
as §1, §2

Another series relates to engrafted healthy HSCs. Description: CFU assay of engrafted healthy HSCs. The series is classed as cell-based. Particulars: engrafted human cells from primary transplanted mice. How it is done: as §1, §2
The subject of series [6] is primary haematopoietic stem/progenitor cells. Briefly: Viability of lineage-negative umbilical cord blood cells. The following applies: 10 μM, 24 h.

Regarding `CN1CCc2cccc3c2[C@H]1Cc1ccc(O)c(O)c1-3` [Apomorphine, (6aR)-6-methyl-5,6,6a,7-tetrahydro-4H-dibenzo[de,g]quinoline-10,11-diol], in series [1], the “myeloid markers (CD11b, CD14, CD15) on primary AML patient samples” value is on record as “induced the upregulation of myeloid markers; also recorded: induced myeloid differentiation”. For the same compound, in the series with primary AML samples, the “clonogenic capacity of primary AML samples (number of CFU-B)” value was “reduced the clonogenic capacity”. In addition, the “clonogenic capacity of healthy haematopoietic stem/progenitor cells (total colonies, frequency of CFU subtypes)” value in [2] is reported as “None of the 5HTR antagonists affected the clonogenic capacity”. The “clonogenic capacity in secondary CFUs” value in series [3] is “a reduction in the clonogenic capacity was observed”. Further, in the series on MonoMac-1 cells, the “AML burden in bone marrow” value was “significant reduction in AML burden”. The “homing and engraftment capacity of treated AML cells” value in series [4] is “less homing and engraftment capacity”. In addition, in series [5], the “self-renewal and differentiation capacity of healthy hematopoietic stem cells in secondary transplants” value is “retained their self-renewal and differentiation capacity”. Moreover, the “clonogenic capacity of engrafted AML samples (CFU assays)” value with AML cells is reported as “significantly reduced”. For the same compound, the “clonogenic capacity of engrafted healthy HSCs (CFU assays)” value with engrafted healthy HSCs was “little effect”. Also, in series [6], the “viability of healthy haematopoietic stem/progenitor cells” value was “remain unaffected”.
